Common to all, as to assay: biochemical
Assay [1] addresses T1, BIKE (Homo sapiens, UniProt Q9NSY1).
T1 construct: gene BMP2K; catalytic domain-containing construct
Set-up: Thermal shift assay (DSF, SYPRO Orange), 2 uM kinase domain, mean delta Tm of triplicates versus DMSO. The conditions noted are these: read-out: BIKE. Here is the method:
(§1) All measurements were performed in triplicate and mean values were reported for all compounds (Table S1). […] However, NAKs are often omitted from selectivity panels, including commercial screens.

In assay [2] the target is T2, MPSK1 (Homo sapiens, UniProt O75716).
T2 construct: gene STK16; catalytic domain-containing construct
T2 sequence (O75716 whole entry, the tested form may be a part): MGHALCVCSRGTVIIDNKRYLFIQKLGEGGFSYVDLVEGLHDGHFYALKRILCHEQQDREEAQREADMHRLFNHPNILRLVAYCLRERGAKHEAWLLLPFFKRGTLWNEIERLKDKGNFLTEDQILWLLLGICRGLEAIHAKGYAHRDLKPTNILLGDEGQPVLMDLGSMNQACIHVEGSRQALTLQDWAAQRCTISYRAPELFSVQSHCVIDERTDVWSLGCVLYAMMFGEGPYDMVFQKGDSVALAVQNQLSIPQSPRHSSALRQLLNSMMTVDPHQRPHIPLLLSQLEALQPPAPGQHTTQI
The arrangement: Thermal shift assay (DSF, SYPRO Orange), 2 uM kinase domain, mean delta Tm of triplicates versus DMSO. The conditions noted are these: read-out: MPSK1. How it is done: as §1

Assay [3] deals with T3, GAK (Homo sapiens, UniProt O14976).
T3 construct: catalytic domain-containing construct
T3 sequence (O14976 1-1311): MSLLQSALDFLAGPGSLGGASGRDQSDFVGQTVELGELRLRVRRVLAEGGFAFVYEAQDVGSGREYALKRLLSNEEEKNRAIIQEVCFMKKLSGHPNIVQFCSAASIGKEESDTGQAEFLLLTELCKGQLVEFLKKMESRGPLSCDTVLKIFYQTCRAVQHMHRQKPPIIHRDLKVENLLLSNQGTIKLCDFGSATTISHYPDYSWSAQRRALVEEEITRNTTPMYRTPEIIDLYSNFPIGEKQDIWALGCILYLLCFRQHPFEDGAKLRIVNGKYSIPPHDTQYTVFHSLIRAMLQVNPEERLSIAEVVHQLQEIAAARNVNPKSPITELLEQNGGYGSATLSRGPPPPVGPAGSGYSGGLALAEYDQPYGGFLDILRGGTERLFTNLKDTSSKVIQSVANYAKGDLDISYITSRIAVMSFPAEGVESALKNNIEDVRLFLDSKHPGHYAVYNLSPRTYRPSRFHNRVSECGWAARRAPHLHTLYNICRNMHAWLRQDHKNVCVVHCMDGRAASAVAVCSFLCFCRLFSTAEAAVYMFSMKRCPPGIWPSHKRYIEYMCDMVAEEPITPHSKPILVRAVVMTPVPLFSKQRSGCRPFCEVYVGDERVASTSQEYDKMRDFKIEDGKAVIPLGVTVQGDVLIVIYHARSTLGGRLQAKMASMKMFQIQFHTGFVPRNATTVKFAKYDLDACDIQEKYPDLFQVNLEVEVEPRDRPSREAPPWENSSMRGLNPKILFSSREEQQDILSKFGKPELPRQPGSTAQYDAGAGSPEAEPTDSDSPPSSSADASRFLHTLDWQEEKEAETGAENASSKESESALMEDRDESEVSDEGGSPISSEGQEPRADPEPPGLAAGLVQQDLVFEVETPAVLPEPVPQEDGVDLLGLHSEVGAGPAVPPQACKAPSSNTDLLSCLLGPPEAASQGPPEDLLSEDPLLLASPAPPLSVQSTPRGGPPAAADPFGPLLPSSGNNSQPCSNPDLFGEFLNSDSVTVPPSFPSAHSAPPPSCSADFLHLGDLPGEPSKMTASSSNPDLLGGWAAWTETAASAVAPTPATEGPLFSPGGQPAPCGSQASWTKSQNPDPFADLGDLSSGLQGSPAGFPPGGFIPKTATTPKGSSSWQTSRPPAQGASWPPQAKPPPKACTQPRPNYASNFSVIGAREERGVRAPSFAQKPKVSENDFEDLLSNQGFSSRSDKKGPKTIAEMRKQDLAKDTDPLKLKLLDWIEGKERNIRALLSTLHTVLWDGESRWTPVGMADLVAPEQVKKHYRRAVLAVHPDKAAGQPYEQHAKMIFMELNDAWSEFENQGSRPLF
The arrangement: Thermal shift assay (DSF, SYPRO Orange), 2 uM kinase domain, mean delta Tm of triplicates versus DMSO. The conditions noted are these: read-out: GAK. How it is done: as §1

Assay [4] has as its target AAK1 (Homo sapiens, UniProt Q2M2I8). The arrangement: kinase domain; Thermal shift assay (DSF, SYPRO Orange), 2 uM kinase domain, mean delta Tm of triplicates versus DMSO. The conditions noted are these: read-out: AAK1. How it is done: as §1

T1 sequence (Q9NSY1 whole entry, the tested form may be a part): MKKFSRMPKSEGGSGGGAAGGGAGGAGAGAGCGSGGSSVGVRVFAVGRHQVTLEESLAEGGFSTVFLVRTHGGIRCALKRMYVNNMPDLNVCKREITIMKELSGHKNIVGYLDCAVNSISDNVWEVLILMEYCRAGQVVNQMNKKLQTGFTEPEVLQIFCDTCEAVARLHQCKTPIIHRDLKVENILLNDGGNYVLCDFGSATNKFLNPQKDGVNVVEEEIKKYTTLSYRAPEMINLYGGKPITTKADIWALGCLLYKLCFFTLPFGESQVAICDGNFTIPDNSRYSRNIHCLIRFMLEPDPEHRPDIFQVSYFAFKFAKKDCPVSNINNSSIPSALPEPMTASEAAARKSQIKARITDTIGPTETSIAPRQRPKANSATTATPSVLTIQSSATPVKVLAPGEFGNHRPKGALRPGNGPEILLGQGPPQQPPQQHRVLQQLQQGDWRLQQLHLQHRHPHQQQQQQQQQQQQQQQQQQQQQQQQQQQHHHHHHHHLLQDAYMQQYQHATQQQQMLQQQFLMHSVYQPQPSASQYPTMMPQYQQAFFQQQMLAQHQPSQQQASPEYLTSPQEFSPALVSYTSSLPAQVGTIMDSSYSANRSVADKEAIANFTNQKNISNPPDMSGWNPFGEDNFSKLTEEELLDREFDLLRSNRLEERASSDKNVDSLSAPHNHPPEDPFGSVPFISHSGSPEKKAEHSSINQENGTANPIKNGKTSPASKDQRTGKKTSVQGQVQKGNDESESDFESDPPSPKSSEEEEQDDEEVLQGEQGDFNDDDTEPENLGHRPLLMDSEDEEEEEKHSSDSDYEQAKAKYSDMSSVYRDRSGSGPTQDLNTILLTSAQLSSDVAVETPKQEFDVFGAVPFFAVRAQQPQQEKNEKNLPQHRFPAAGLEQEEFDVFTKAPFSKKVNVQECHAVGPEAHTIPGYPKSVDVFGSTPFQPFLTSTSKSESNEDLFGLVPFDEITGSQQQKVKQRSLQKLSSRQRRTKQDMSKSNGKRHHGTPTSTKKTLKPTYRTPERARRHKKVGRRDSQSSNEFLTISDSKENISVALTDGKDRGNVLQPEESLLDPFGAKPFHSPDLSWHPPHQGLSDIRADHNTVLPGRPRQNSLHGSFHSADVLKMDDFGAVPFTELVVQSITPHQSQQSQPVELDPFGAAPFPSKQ
Chain of AAK1 (Q2M2I8 27-365 limits assumed): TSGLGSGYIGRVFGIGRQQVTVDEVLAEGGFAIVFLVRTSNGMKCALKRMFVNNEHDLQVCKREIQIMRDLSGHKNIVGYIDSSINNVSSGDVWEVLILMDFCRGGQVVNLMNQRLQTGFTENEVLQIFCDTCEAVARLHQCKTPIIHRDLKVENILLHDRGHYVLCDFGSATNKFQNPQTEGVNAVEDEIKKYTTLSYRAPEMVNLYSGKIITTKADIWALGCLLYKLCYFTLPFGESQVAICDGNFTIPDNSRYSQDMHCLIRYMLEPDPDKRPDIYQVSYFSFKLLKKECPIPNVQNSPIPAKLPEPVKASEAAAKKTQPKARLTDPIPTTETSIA

Take `CCN(CCO)CCCOc1ccc2c(Nc3cc(CC(=O)Nc4cccc(F)c4)[nH]n3)ncnc2c1` [AZD1152-HQPA]: the ΔTm at 12.5 µM in assay [1] was 2.02 °C; in assay [2], 0.953 °C; in assay [3], -0.54 °C.
On to `CCN1CCN(c2ccc(Nc3cc(N(C)C(=O)Nc4c(Cl)c(OC)cc(OC)c4Cl)ncn3)cc2)CC1` [NVP-BGJ398], for which the ΔTm at 12.5 µM was 0.41 °C in assay [4], 0.763 °C in assay [1], 0.66 °C in assay [2] and -0.197 °C in assay [3].
The like results for `C#Cc1cccc(Nc2ncnc3cc4c(cc23)OCCOCCOCCO4)c1` [Icotinib] were, in that order, 2.56 °C, 4.47 °C, 0.81 °C and 3.33 °C.
The corresponding values for `CN1CCN(CCOc2cc(OC3CCOCC3)c3c(Nc4c(Cl)ccc5c4OCO5)ncnc3c2)CC1` [Saracatinib] are 0.31 °C, 4.59 °C, 0.66 °C and 7.95 °C.
As for `Cc1cc(C(=O)NOCCO)c(Nc2ccc(I)cc2F)n(C)c1=O` [AZD8330], the ΔTm at 12.5 µM in assay [4] is 0.187 °C; in assay [1], 0.227 °C; in assay [2] it was 0.463 °C; in assay [3], -0.347 °C.
With `CCn1c(-c2nonc2N)nc2cnc(Oc3cccc(NC(=O)c4ccc(OCCN5CCOCC5)cc4)c3)cc21` [GSK269962], the ΔTm at 12.5 µM was 7.43 °C in assay [4], 6.73 °C in assay [1], 2.88 °C in assay [2] and 0.157 °C in assay [3].
The corresponding values for `Cc1cc(C(C)Nc2ccccc2)c2nc(N3CCOCC3)cc(=O)n2c1` (centres unmarked) [TGX-221] are 0.26 °C, 0.5 °C, 1.43 °C and -0.347 °C.
The corresponding values for `CN1CC[C@H](c2c(O)cc(O)c3c(=O)cc(-c4ccccc4Cl)oc23)[C@H](O)C1` [Alvocidib] are 1.86 °C, 1.46 °C, 1.55 °C and 1.31 °C.
The corresponding values for `C#Cc1cccc(Nc2ncnc3cc(OCCOC)c(OCCOC)cc23)c1` [Erlotinib] are 2.7 °C, 5.66 °C, 0.883 °C and 3.74 °C.
With `COc1cc2nccc(Oc3ccc(NC(=O)C4(C(=O)Nc5ccc(F)cc5)CC4)cc3)c2cc1OC` [Cabozantinib], the ΔTm at 12.5 µM in assay [4] stood at 0.82 °C; in assay [1] it was 0.743 °C; in assay [2] it was 0.713 °C; in assay [3] it was 2.46 °C.
As to `COc1cc(N2CCC(N3CCN(C)CC3)CC2)ccc1Nc1ncnc(Nc2ccccc2S(=O)(=O)C(C)C)n1` [ASP3026], the ΔTm at 12.5 µM in assay [4] turned out to be 4.23 °C; in assay [1] it was 2.92 °C; in assay [2] it was 1.08 °C; in assay [3] it was 3.17 °C.
`CNC(=O)c1cccc(-c2ccc3c(N4CCOC[C@@H]4C)nc(N4CCOC[C@@H]4C)nc3n2)c1` [AZD2014]: the ΔTm at 12.5 µM is 0.373 °C in assay [4], 0.477 °C in assay [1], 1.12 °C in assay [2] and -0.433 °C in assay [3].
The like results for `Cn1c(Nc2ccc(C(F)(F)F)cc2)nc2cc(Oc3ccnc(-c4ncc(C(F)(F)F)[nH]4)c3)ccc21` [RAF265] were, in that order, 1.45 °C, 1.07 °C, 1.67 °C and 7.37 °C.
The like results for `CCc1cncnc1N1CCN(Cc2nc3ccc(C(F)(F)F)cc3[nH]2)CC1` [PF-04708671] were, in that order, 0.437 °C, 0.45 °C, 1.04 °C and -0.243 °C.
Consider `Cn1c(=O)c(F)c(Nc2ccc(I)cc2F)c2c(=O)n(C[C@@H](O)CO)cnc21` [TAK-733], for which the ΔTm at 12.5 µM is 0.0367 °C in assay [4], 0.177 °C in assay [1], 0.277 °C in assay [2] and -0.183 °C in assay [3].
Regarding `C=CC(=O)N1CCC[C@@H](n2nc(-c3ccc(Oc4ccccc4)cc3)c3c(N)ncnc32)C1` [Ibrutinib], the ΔTm at 12.5 µM was 0.0167 °C in assay [4], 0.397 °C in assay [1], 1.76 °C in assay [2] and -0.293 °C in assay [3].
The like results for `COc1cc2c(N3CCN(C(=O)Nc4ccc(OC(C)C)cc4)CC3)ncnc2cc1OCCCN1CCCCC1` [Tandutinib] were, in that order, 0.57 °C, 1.76 °C, 1.21 °C and 0.06 °C.
Take `NC1(c2ccc(-c3nc4ccn5c(=O)[nH]nc5c4cc3-c3ccccc3)cc2)CCC1` [MK-2206]: the ΔTm at 12.5 µM in assay [4] is 1.1 °C; in assay [1] it was 0.637 °C; in assay [2], 1.1 °C; in assay [3], -0.83 °C.
Regarding `O=C(Cc1ccc(-c2ccc(OCCN3CCOCC3)cc2)cn1)NCc1ccccc1` [KX2-391], the ΔTm at 12.5 µM in assay [4] stood at 0.0867 °C; in assay [1], 1.76 °C; in assay [2], 0.373 °C; in assay [3], 0.46 °C.
The like results for `O=C(NC[C@H](O)CO)c1ccncc1Nc1ccc(I)cc1F` [Pimasertib] were, in that order, 0.0267 °C, 0.36 °C, 0.313 °C and -0.59 °C.
Regarding `COc1cccc2cc(-c3nc([C@H]4CC[C@H](C(=O)O)CC4)n4ncnc(N)c34)[nH]c12` [OSI-027], the ΔTm at 12.5 µM in assay [4] is 0.0767 °C; in assay [1], 0.31 °C; in assay [2] it was 0.92 °C; in assay [3], -0.547 °C.
Take `C[C@@H]1CCN(C(=O)CC#N)C[C@@H]1N(C)c1ncnc2[nH]ccc12` [Tofacitinib]: the ΔTm at 12.5 µM was 0.68 °C in assay [4], 2.18 °C in assay [1], 1.35 °C in assay [2] and -0.58 °C in assay [3].
On to `O=C1NC(=O)[C@@H](c2cn3c4c(cccc24)CCC3)[C@@H]1c1c[nH]c2ccccc12` [Tivantinib], for which the ΔTm at 12.5 µM is 0.46 °C in assay [4], 0.697 °C in assay [1], 0.87 °C in assay [2] and -0.823 °C in assay [3].
Turning to `CNc1nc(-c2ccc3c(N)n[nH]c3c2)cc(N2C[C@@H](C(=O)NC3CCCCC3)CC[C@H]2C)n1` [GSK2334470], the ΔTm at 12.5 µM was determined as 4.98 °C in assay [4], 5.35 °C in assay [1], 0.883 °C in assay [2] and 1.69 °C in assay [3].
As to `O=c1sn(-c2cccc3ccccc23)c(=O)n1Cc1ccccc1` [Tideglusib], the ΔTm at 12.5 µM in assay [4] is 0.24 °C; in assay [1] it was 0.245 °C; in assay [2], 0.443 °C; in assay [3] it was -0.487 °C.
With `CS(=O)(=O)N1CCN(Cc2cc3nc(-c4cccc5[nH]ncc45)nc(N4CCOCC4)c3s2)CC1` [Pictilisib], the ΔTm at 12.5 µM is 2.3 °C in assay [4], 4.67 °C in assay [1] and 5.92 °C in assay [2].
In the case of `CNC(=O)c1c(F)cccc1Nc1nc(Nc2cc3c(ccn3C(=O)CN(C)C)cc2OC)nc2[nH]ccc12` [GSK1838705A], the ΔTm at 12.5 µM came to 0.143 °C in assay [4], 0.543 °C in assay [1], 1.27 °C in assay [2] and 0.74 °C in assay [3].
With `CC[C@@H]1C(=O)N(C)c2cnc(Nc3ccc(C(=O)NC4CCN(C)CC4)cc3OC)nc2N1C1CCCC1` [BI 2536], the ΔTm at 12.5 µM in assay [3] was 4.13 °C.

For the origin of these results see PMC4780864, “Family-wide Structural Analysis of Human Numb-Associated Protein Kinases” (Structure(London, England:1993), 2016).
